Results published in patent publication US9346786B2, “Pyrrolidine compounds” (Hoffmann-La Roche Inc., priority 2009, dated 2016).

Target: recombinant human NK3 receptor (Homo sapiens (Human), UniProt P29371)
Assay: biochemical
Type: binding
Details: [3H]SR142801, membranes of HEK293 cells transiently expressing recombinant human NK3 receptor; read-out: Data Ki (hNK-3 receptor affinity)
Method: [^3H]SR142801 Competition Binding Assay
hNK3 receptor binding experiment were performed using [^3H]SR142801 (Catalog No. TRK1035, specific activity: 74.0 Ci/mmol, Amersham, GE Healthcare UK limited, Buckinghamshire, UK) and membrane isolated from HEK293 cells transiently expressing recombinant human NK3 receptor. After thawing, the membrane homogenates were centrifuged at 48,000×g for […] at 4° C., the pellets were resuspended in the 50 mM Tris-HCl, 4 mM MnCl2, 1 μM phosphoramidon, 0.1% BSA binding buffer at pH 7.4 to a final assay concentration of 5 μg protein/well. For inhibition experiments, membranes were incubated with [^3H]SR142801 at a concentration equal to KD value of radioligand and 10 concentrations of the inhibitory compound (0.0003-10 μM) (in a total reaction volume of 500 μl) for 75 min at room temperature (RT). At the end of the incubation, membranes were filtered onto unitfilter (96-well white microplate with bonded GF/C filter preincubated 1 h in 0.3% PEI+0.3% BSA, Packard BioScience, Meriden, Conn.) with a Filtermate 196 harvester (Packard BioScience) and washed 4 times with ice-cold 50 mM Tris-HCl, pH 7.4 buffer. Nonspecific binding was measured in the presence of 10 μM SB222200 for both radioligands. The radioactivity on the filter was counted (5 min) on a Packard Top-count microplate scintillation counter with quenching correction after addition of 45 μl of microscint 40 (Canberra Packard S.A., Zürich, Switzerland) and shaking for 1 h. Inhibition curves were fitted according to the Hill equation: y=100/(1+(x/IC50)^nH), where nH=slope factor using Excel-fit 4 software (Microsoft). IC50 values were derived from the inhibition curve and the affinity constant (Ki) values were calculated using the Cheng-Prussoff equation Ki=IC50/(1+[L]/KD) where [L] is the concentration of radioligand and KD is its dissociation constant at the receptor, derived from the saturation isotherm. All experiments were performed in duplicate and the mean±standard error (SEM) of the individual Ki values was calculated.

Chain of recombinant human NK3 receptor (P29371 whole entry): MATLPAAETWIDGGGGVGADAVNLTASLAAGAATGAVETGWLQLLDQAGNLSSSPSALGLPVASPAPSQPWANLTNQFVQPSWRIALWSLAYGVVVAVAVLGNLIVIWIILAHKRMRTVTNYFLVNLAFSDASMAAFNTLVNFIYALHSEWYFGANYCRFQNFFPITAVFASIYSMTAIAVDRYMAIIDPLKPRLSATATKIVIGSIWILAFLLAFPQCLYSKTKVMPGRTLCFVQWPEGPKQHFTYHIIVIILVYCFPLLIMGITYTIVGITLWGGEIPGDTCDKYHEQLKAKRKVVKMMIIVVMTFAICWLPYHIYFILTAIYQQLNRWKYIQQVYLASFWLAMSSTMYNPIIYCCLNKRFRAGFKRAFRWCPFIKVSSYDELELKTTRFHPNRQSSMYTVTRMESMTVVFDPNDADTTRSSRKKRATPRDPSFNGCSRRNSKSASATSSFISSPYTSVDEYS

| Structure (SMILES) | Ki [nM] |
| --- | --- |
| CCN(C(=O)Oc1ccc(F)cc1)[C@@H]1CN(C(=O)C2CCN(c3ccc(C#N)nn3)CC2)C[C@H]1c1ccc(Cl)c(F)c1 [Example 57, {(3S,4R)-4-(4-Chloro-3-fluoro-phenyl)-1-[1-(6-cyano-pyridazin-3-yl)-piperidine-4-carbonyl]-pyrrolidin-3-yl}-ethyl-carbamic acid 4-fluoro-phenyl ester] | 0.7 |
| CCN(C(=O)Oc1ccc(F)cc1)[C@@H]1CN(C(=O)C2CCC(=O)N(C(C)C)C2)C[C@H]1c1ccc(Cl)c(F)c1 (stereo partly drawn) [Example 105, [(3S,4R)-4-(4-Chloro-3-fluoro-phenyl)-1-(1-isopropyl-6-oxo-piperidine-3-carbonyl)-pyrrolidin-3-yl]-ethyl-carbamic acid 4-fluoro-phenyl ester] | 31.2 |
| CCN(C(=O)Oc1ccc(F)cc1)[C@@H]1CN(C(=O)C2CCN(c3ccc(Cl)cn3)CC2)C[C@H]1c1ccc(Cl)c(F)c1 [Example 41, [(3S,4R)-4-(4-Chloro-3-fluoro-phenyl)-1-(5′-chloro-3,4,5,6-tetrahydro-2H-[1,2′]bipyridinyl-4-carbonyl)-pyrrolidin-3-yl]-ethyl-carbamic acid 4-fluoro-phenyl ester] | 0.6 |
| CCN(C(=O)Oc1ccc(F)cc1)[C@@H]1CN(C(=O)C2CCN(C(=O)C3CCC(=O)NC3)CC2)C[C@H]1c1ccc(F)c(F)c1 (stereo partly drawn) [Example 107, {(3S,4R)-4-(3,4-Difluoro-phenyl)-1-[1-(6-oxo-piperidine-3-carbonyl)-piperidine-4-carbonyl]-pyrrolidin-3-yl}-ethyl-carbamic acid 4-fluoro-phenyl ester] | 131 |
| CCN(C(=O)Oc1ccc(F)cc1)[C@@H]1CN(C(=O)C2CCN(c3ccc(C(C)=O)cn3)CC2)C[C@H]1c1ccc(F)c(F)c1 [Example 60, [(3S,4R)-1-(5′-Acetyl-3,4,5,6-tetrahydro-2H-[1,2′]bipyridinyl-4-carbonyl)-4-(3,4-difluoro-phenyl)-pyrrolidin-3-yl]-ethyl-carbamic acid 4-fluoro-phenyl ester] | 4 |
| CCN(C(=O)Oc1ccc(F)cc1)[C@@H]1CN(C(=O)C2CCN(c3ccc(F)cn3)CC2)C[C@H]1c1ccc(Cl)c(F)c1 [Example 46, [(3S,4R)-4-(4-Chloro-3-fluoro-phenyl)-1-(5′-fluoro-3,4,5,6-tetrahydro-2H-[1,2′]bipyridinyl-4-carbonyl)-pyrrolidin-3-yl]-ethyl-carbamic acid 4-fluoro-phenyl ester] | 1 |
| CC(C)N(C(=O)Oc1ccc(F)cc1)[C@@H]1CN(C(=O)C2CCN(C(=O)C3(C)CC3)CC2)C[C@H]1c1ccc(Cl)c(Cl)c1 (racemic) [Example 2, rac-{(3S,4R)-4-(3,4-Dichloro-phenyl)-1-[1-(1-methyl-cyclopropanecarbonyl)-piperidine-4-carbonyl]-pyrrolidin-3-yl}-isopropyl-carbamic acid 4-fluoro-phenyl ester] | 46 |
| CCN(C(=O)Oc1ccc(F)cc1)[C@@H]1CN(C(=O)C2CCN(c3ccc(S(C)(=O)=O)cn3)CC2)C[C@H]1c1ccc(F)cc1 [Example 37, Ethyl-[(3S,4R)-4-(4-fluoro-phenyl)-1-(5′-methanesulfonyl-3,4,5,6-tetrahydro-2H-[1,2′]bipyridinyl-4-carbonyl)-pyrrolidin-3-yl]-carbamic acid 4-fluoro-phenyl ester] | 8 |
| CCN(C(=O)Oc1ccc(F)cc1)[C@@H]1CN(C(=O)C2CCN(C(=O)C3CCOCC3)CC2)C[C@H]1c1ccc(Cl)cc1 [Example 97, {(3S,4R)-4-(4-Chloro-phenyl)-1-[1-(tetrahydro-pyran-4-carbonyl)-piperidine-4-carbonyl]-pyrrolidin-3-yl}-ethyl-carbamic acid 4-fluoro-phenyl ester] | 4.4 |
| CCN(CC)CC(=O)c1ccc(N2CCC(C(=O)N3C[C@@H](N(CC)C(=O)Oc4ccc(F)cc4)[C@H](c4ccc(F)cc4)C3)CC2)nc1 [Example 122, [(3S,4R)-1-[5′-(2-Diethylamino-acetyl)-3,4,5,6-tetrahydro-2H-[1,2′]bipyridinyl-4-carbonyl]-4-(4-fluoro-phenyl)-pyrrolidin-3-yl]-ethyl-carbamic acid 4-fluoro-phenyl ester] | 69.6 |
| CCN(C(=O)Oc1ccccc1F)[C@@H]1CN(C(=O)C2CCN(C(=O)C3(C)COC3)CC2)C[C@H]1c1ccc(Cl)cc1 [Example 84, {(3S,4R)-4-(4-Chloro-phenyl)-1-[1-(3-methyl-oxetane-3-carbonyl)-piperidine-4-carbonyl]-pyrrolidin-3-yl}-ethyl-carbamic acid 2-fluoro-phenyl ester] | 29.8 |
| CCN(C(=O)Oc1ccc(F)cc1)[C@H]1CN(C(=O)C2CCN(c3ccc(C#N)cn3)CC2)C[C@@H]1c1ccc(Cl)cc1 [Example 22, [(3R,4S)-4-(4-Chloro-phenyl)-1-(5′-cyano-3,4,5,6-tetrahydro-2H-[1,2′]bipyridinyl-4-carbonyl)-pyrrolidin-3-yl]-ethyl-carbamic acid 4-fluoro-phenyl ester] | 25 |
| CC(=O)c1ccc(N2CCC(C(=O)N3C[C@@H](N(C(=O)Oc4ccc(F)cc4)C(C)C)[C@H](c4ccc(Cl)cc4)C3)CC2)nc1 [Example 24, [(3S,4R)-1-(5′-Acetyl-3,4,5,6-tetrahydro-2H-[1,2′]bipyridinyl-4-carbonyl)-4-(4-chloro-phenyl)-pyrrolidin-3-yl]-isopropyl-carbamic acid 4-fluoro-phenyl ester] | 62 |
| CCN(C(=O)Oc1ccc(F)cc1)[C@H]1CN(C(=O)C2CCN(c3ncc(C#N)cn3)CC2)C[C@@H]1c1ccc(Cl)cc1 [Example 7, {(3R,4S)-4-(4-Chloro-phenyl)-1-[1-(5-cyano-pyrimidin-2-yl)-piperidine-4-carbonyl]-pyrrolidin-3-yl}-ethyl-carbamic acid 4-fluoro-phenyl ester] | 89 |
| CCN(C(=O)Oc1ccc(F)cc1)[C@@H]1CN(C(=O)C2CCN(C(=O)C3CCOC(C)(C)C3)CC2)C[C@H]1c1ccc(Cl)cc1 (stereo partly drawn) [Example 98, {(3S,4R)-4-(4-Chloro-phenyl)-1-[1-(2,2-dimethyl-tetrahydro-pyran-4-carbonyl)-piperidine-4-carbonyl]-pyrrolidin-3-yl}-ethyl-carbamic acid 4-fluoro-phenyl ester] | 4.7 |
| CCN(C(=O)Oc1ccc(F)cc1)[C@@H]1CN(C(=O)C2CCN(c3ccc(C#N)cn3)CC2)C[C@H]1c1ccc(Cl)c(F)c1 [Example 40, [(3S,4R)-4-(4-Chloro-3-fluoro-phenyl)-1-(5′-cyano-3,4,5,6-tetrahydro-2H-[1,2′]bipyridinyl-4-carbonyl)-pyrrolidin-3-yl]-ethyl-carbamic acid 4-fluoro-phenyl ester] | 0.7 |
| CCN(C(=O)Oc1ccc(F)cc1)[C@@H]1CN(C(=O)C2CCN(c3ccc(C#N)nn3)CC2)C[C@H]1c1ccc(Cl)cc1 [Example 18, {(3S,4R)-4-(4-Chloro-phenyl)-1-[1-(6-cyano-pyridazin-3-yl)-piperidine-4-carbonyl]-pyrrolidin-3-yl}-ethyl-carbamic acid 4-fluoro-phenyl ester] | 2 |

Same assay, conditions: read-out: Data Ki (hNK-3 receptor affinity)

| Structure (SMILES) | Ki [nM] |
| --- | --- |
| CCN(C(=O)Oc1ccc(F)cc1)[C@@H]1CN(C(=O)C2CCN(C(=O)c3ccc(F)cc3)CC2)C[C@H]1c1ccc(Cl)c(F)c1 [Example 77, {(3S,4R)-4-(4-Chloro-3-fluoro-phenyl)-1-[1-(4-fluoro-benzoyl)-piperidine-4-carbonyl]-pyrrolidin-3-yl}-ethyl-carbamic acid 4-fluoro-phenyl ester] | 4 |
| CCN(C(=O)Oc1ccc(F)cc1)[C@@H]1CN(C(=O)C2CCN(C(=O)C3CCOC(C)(C)C3)CC2)C[C@H]1c1ccc(Cl)c(F)c1 (stereo partly drawn) [Example 73, {(3S,4R)-4-(4-Chloro-3-fluoro-phenyl)-1-[1-(2,2-dimethyl-tetrahydro-pyran-4-carbonyl)-piperidine-4-carbonyl]-pyrrolidin-3-yl}-ethyl-carbamic acid 4-fluoro-phenyl ester] | 3 |
| N#Cc1cnc(N2CCC(C(=O)N3C[C@@H](N(C(=O)Oc4ccc(F)cc4)C4CC4)[C@H](c4ccc(Cl)cc4)C3)CC2)cn1 [Example 33, {(3S,4R)-4-(4-Chloro-phenyl)-1-[1-(5-cyano-pyrazin-2-yl)-piperidine-4-carbonyl]-pyrrolidin-3-yl}-cyclopropyl-carbamic acid 4-fluoro-phenyl ester] | 48 |
| CCN(C(=O)Oc1ccc(F)cc1)[C@@H]1CN(C(=O)C2CCN(c3ccc(F)cn3)CC2)C[C@H]1c1ccc(Cl)c(Cl)c1 [Example 112, [(3S,4R)-4-(3,4-Dichloro-phenyl)-1-(5′-fluoro-3,4,5,6-tetrahydro-2H-[1,2′]bipyridinyl-4-carbonyl)-pyrrolidin-3-yl]-ethyl-carbamic acid 4-fluoro-phenyl ester] | 0.8 |
